Biological target: Lanosterol 14-alpha demethylase (Candida albicans) (UniProt P10613)
Test: In vitro inhibition of Lanosterol 14-alpha demethylase (Candida albicans CY1005)

Sequence of Lanosterol 14-alpha demethylase (Candida albicans) (P10613 whole entry, looked up): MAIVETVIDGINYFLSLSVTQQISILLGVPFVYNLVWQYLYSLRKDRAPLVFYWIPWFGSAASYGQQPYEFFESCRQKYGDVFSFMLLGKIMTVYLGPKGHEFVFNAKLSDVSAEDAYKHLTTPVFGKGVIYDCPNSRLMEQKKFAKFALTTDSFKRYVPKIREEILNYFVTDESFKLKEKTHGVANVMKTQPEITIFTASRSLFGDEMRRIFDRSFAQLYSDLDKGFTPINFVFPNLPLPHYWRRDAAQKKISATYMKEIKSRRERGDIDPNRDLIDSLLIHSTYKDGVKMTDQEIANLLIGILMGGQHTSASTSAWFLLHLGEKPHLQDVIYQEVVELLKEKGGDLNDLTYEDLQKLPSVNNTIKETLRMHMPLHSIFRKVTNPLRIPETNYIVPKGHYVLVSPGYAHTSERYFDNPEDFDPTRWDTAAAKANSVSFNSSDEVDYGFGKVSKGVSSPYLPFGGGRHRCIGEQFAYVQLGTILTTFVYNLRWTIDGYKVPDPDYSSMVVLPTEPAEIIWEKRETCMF

Row | IC50 [nM] | Structure (SMILES)
1 | 225 | CCCCCCC/C=C/C[C@@H]1OC[C@H](C)[C@H](OC)[C@H]1COC(=O)CN
2 | 90.3 | CCc1ccc(CC[C@@H]2CCC(C)(C)[C@H](OC)[C@H]2Cn2ccnc2)cc1
3 | 85 | CC[C@@H](C)n1ncn(-c2ccc(N3CCN(c4ccc(OC[C@H]5CO[C@](Cn6cncn6)(c6ccc(Cl)cc6Cl)O5)cc4)CC3)cc2)c1=O [ITRAZOLE]

Reference: BindingDB's records for doi:10.1016/S0960-894X(01)80190-6 (n/a, 1994)
